# Experimental data reported in US10022356B2, “Compounds for treatment of cancer” (UNIVERSITY OF TENNESSEE RESEARCH FOUNDATION, priority 2013, dated 2018).
# Several values for one entry are separate records, joined by “and”; a condition that tells them apart may be missing. Equal entries are not always repeated. Where two headings read alike, the source gives them in different places.
# How the values were obtained:
# [1] = Pharmacokinetic study in Sprague-Dawley rats; conditions: rat
# [2] = Aqueous solubility (Multiscreen Solubility Filter Plate, LC-MS/MS); format: physicochemical; conditions: PBS pH 7.4
# Experimental: The solubility of drugs was determined by Multiscreen Solubility Filter Plate (Millipore Corporate, Billerica, Mass.) coupled with LC-MS/MS.
# [3] = tested on: metastasis of melanoma to the lungs; experiment: Melanoma lung metastasis model in mice; format: in vivo; conditions: i.p. injection 5 days per week for 2 weeks (FIG. 28)
# Description: Panel A: Representative photos of lungs with melanoma nodules (black dots, n=8 per group). Treatment was i.p. injection 5 days per week for 2 weeks. Panel B: Number of melanoma nodules on each lung. […] Panel C: Mouse body weight changes during the experiment. Points: means; bars: SD. Control: vehicle solution only.
# B16-F1 melanoma cells = experiment: B16-F1 melanoma colony formation assay in soft agar; format: cell-based, mouse; conditions: 14 days; tested 20, 100, 500 nM
# Experimental: B16-F1 melanoma cells were plated at a colony-forming density (2000 cells per well on six-well plates) on top of 0.8% base agar. Cells were grown in 0.4% agar together with DMEM medium supplemented with fetal bovine serum and an antibiotic-antimycotic solution at 37° C. in an atmosphere of 95% air and 5% CO2. […] Compounds were added to the media from 1 mM DMSO stock solutions, and a corresponding dilution of DMSO was used as control. Cells were grown for 14 days. Plates were photographed, and the number of colonies was measured by Artek 880 Automated Colony Counter (Artek Systems Corporation, Farmingdale, N.Y.).
# A375RF21 [4] = experiment: Annexin V/propidium iodide apoptosis detection in A375RF21 cells; format: cell-based, human; conditions: 48 hours incubation
# A375 = experiment: MTS cell proliferation assay on parental A375 cells; format: cell-based; conditions: Homo sapiens, A-375, read-out: IC50 value for proliferation inhibition
# Experimental: Compounds were dissolved in dimethyl sulfoxide (DMSO, Sigma-Aldrich, St. Louis, Mo.) to make stock solution of 10 mM. […] All cell lines were authenticated prior to use for this study. Cells were cultured in DMEM medium (Mediatech, Inc., Manassas, Va.), supplemented by 10% fetal bovine serum (FBS, Atlanta Biologicals, Lawrenceville, Ga.), 1% antibiotic/antimycotic mixture (Sigma-Aldrich, St. Louis, Mo.) and 5 μg/mL bovine insulin (Sigma-Aldrich, St. Louis, Mo.).
# Cell proliferation viability was investigated using MTS or SRB assay as described previously. […] Drug concentrations were selected based on the IC50 value of each drug tested from a pilot study.
# A375RF21 [5] = experiment: MTS cell proliferation assay on vemurafenib-resistant A375RF21 cells; format: cell-based; conditions: Homo sapiens, read-out: IC50 value for proliferation inhibition
# Description: (§1) Cell proliferation viability was investigated using MTS or SRB assay as described previously. An in vitro study of the combination of vemurafenib and the tubulin inhibitors was designed and conducted using CalcuSyn software (Biosoft, Ferguson, Mo.) with five duplicates of each set of treatment. Drug concentrations were selected based on the IC50 value of each drug tested from a pilot study.
# A375RF21 xenograft = experiment: A375RF21 tumor xenograft in nude mice; format: in vivo
# Experimental: Seven to eight week old male nude mice were purchased from Charles River Laboratories International, Inc. (Wilmington, Mass.). A375RF21 cells were suspended in ice-cold phenol red-free and FBS-free DMEM medium without FBS and mixed with high concentration Matrigel (BD Biosciences, San Joes, Calif.) at ratio of 1:1 right before use. 100 μL of this mixture containing 3×10^6 cells were injected subcutaneously (s.c.) to the left-side dorsal flank of each mouse. One week after the inoculation, the mice were randomized into four groups (n=7 for the initial low dose and n=5 for subsequent high dose drug combination) and the treatments started. […] Vehicle control group was i.p. injected with same volume (100 μL) of PEG300 at the same dosing frequency. At the end of the experiments, mice were euthanized and tumor tissue were isolated, weighted and then fixed in 10% buffered formalin phosphate solution.
# Tumor volume and body weight of each mouse were evaluated three times a week.
# in vitro = conditions: human, liver microsomes, pH 7.4
# [6] = tested on: three melanoma cell lines and four human prostate cancer cell lines; experiment: Antiproliferative activity quoted in the SAR text (average of all seven cell lines); format: cell-based
# PC-3 = experiment: SRB cytotoxicity assay, PC-3; conditions: read-out: PC3 (nM), inhibitory effects; RABI, Tables 10A/10B
# Du 145 = experiment: SRB cytotoxicity assay, Du 145; format: cell-based, human; conditions: RABI, Tables 10A/10B; read-out: DU145 (nM), inhibitory effects
# LNCaP = experiment: SRB cytotoxicity assay, LNCaP; format: cell-based, human; conditions: Reversed aryl benzoyl imidazole (RABI), Tables 10A/10B; read-out: LNCaP (nM), inhibitory effects
# PPC-1 = experiment: SRB cytotoxicity assay, PPC-1; format: cell-based, human; conditions: RABI, Tables 10A/10B; read-out: PPC1 (nM), inhibitory effects
# [7] = tested on: A375 human melanoma xenograft; experiment: A375 human melanoma xenograft in SHO nude mice; format: in vivo; conditions: 60 mg/kg; after 31 days of treatment
# Experimental: FIG. 19 depicts in vivo study of ABI compounds. […] C57BL/6 mice bearing B16-F1 melanoma allograft (n=5 per group). Each mouse received 0.5×10^6 cells by s.c. injection into the flank. 30 μL i.p. daily treatments were started when tumor size reached ˜100 mm^3. […] SHO nude mice bearing an A375 human melanoma xenograft (n=5 per group). Each mouse received 2.5×10^6 cells by s.c. injection into the flank. 30 μL i.p. daily treatments were started when the tumor size reached ˜150 mm^3. Control, vehicle solution only; points, means; bars, SD. DTIC, (5-(3,3,-dimethyl-1-triazenyl)-imidazole-4-carboxamide, dacarbazine.
# Average body weight of all groups increased slightly throughout the experiment period.
# B16-F1 melanoma = B16-F1 melanoma tumors in C57/BL mice; format: in vivo; conditions: 60 mg/kg; after 13 days of treatment; C57BL/6 mice
# Experimental: C57BL/6 mice bearing B16-F1 melanoma allograft (n=5 per group). Each mouse received 0.5×10^6 cells by s.c. injection into the flank. 30 μL i.p. daily treatments were started when tumor size reached ˜100 mm^3. […] Control, vehicle solution only; points, means; bars, SD. DTIC, (5-(3,3,-dimethyl-1-triazenyl)-imidazole-4-carboxamide, dacarbazine.
# Female C57/BL mice, age 4-6 weeks, were purchased from Harlan Laboratories (Harlan Laboratories Inc., Indianapolis, Ind.). The animal housing met the Association for Assessment and Accreditation and Laboratory Animal Care specifications. All of the procedures were conducted in accordance with guidelines of our Institutional Animal Care and Use Committee.
# The cell suspension (100 μL) was injected subcutaneously in the right dorsal flank of each mouse. When tumor size reached about 100-150 mm^3, about 7 days after cell inoculation, all mice bearing tumors were divided into control and treatment groups based on tumor size (n=5 per group). Each group had similar average tumor size. Mice in control groups (negative control) were injected intraperitoneally with 50 μL vehicle solution only or DTIC at 60 mg/kg (positive control) once daily. Tumor volume was measured every 2 days with a traceable electronic digital caliper (Fisher Scientific, Inc., Pittsburgh, Pa.) and calculated using the formula a×b^2×0.5, where a and b represented the larger and smaller diameters, respectively. Tumor volume was expressed in cubic millimeters. Data were expressed as mean±SE for each group and plotted as a function of time. […] Animal activity and average body weight of each group were monitored during the entire experiment period to assess compound toxicity. At the end of treatment, all mice were euthanized by CO2 followed by cervical dislocation, and tumors were harvested for further studies.
# A375RF21 [8] = experiment: In vitro combination assay (combination index) on A375RF21; format: cell-based, human; conditions: Treatment + Vemurafenib
# Description: as §1
# [9] = Brain penetration (brain and plasma concentrations) in nude mice; conditions: docetaxel IP 10 mpk, 17ya PO 20 mpk, 55 PO 20 mpk
# PC-3/TxR tumors = conditions: for Tumor size (mm^2) End / Tumor size (mm^2) Start: PC-3/TxR xenograft; for Tumor size (mm^2) End: day 1 and 9, end point day 19; for Tumor size (mm^2) Start: day 1 and 9, start
# [10] = vemurafenib 30 mg/kg, 12da 15 mg/kg, n=5
smiles,measurement,setting,value
"COc1cc(C(=O)c2csc(-c3ccccc3)n2)cc(OC)c1OC [1 h, reference compound]",oral bioavailability,[1],3.3%
same,Aqueous solubility,[2],(1.1) μg/mL
"COc1ccc(-c2nc(C(=O)c3ccc(F)cc3)c[nH]2)cc1 [12cb, (4-fluorophenyl)(2-(4-methoxyphenyl)-1H-imidazol-4-yl)methanone]",metastasis of melanoma to the lungs,[3],inhibition
same,concentration showing effective inhibition of B16-F1 colony formation,B16-F1 melanoma cells,20 nM
"COc1cc(C(=O)c2c[nH]c(-c3ccc(C)cc3)n2)cc(OC)c1OC [12da, (2-(p-tolyl)-1H-imidazol-4-yl)(3,4,5-trimethoxyphenyl)methanone]",metastasis of melanoma to the lungs,[3],inhibition
same,"counted cell apoptosis or death (percentage sum of Q1, Q2 and Q4)",A375RF21 [4],11.8±3.0%
same,IC50,A375,0.0107 ± 0.0015 µM
same,IC50,A375RF21 [5],0.0136 ± 0.0044 µM
same,TGI (%),"A375RF21 xenograft; 12da 10 mg/kg, vemurafenib 20 mg/kg, i.p. once per day 5 days per week, after 3 weeks of treatment, n=7",38.12% and 38.12 ± 6.14%
same,Tumor weight (gram),"A375RF21 xenograft; 12da 10 mg/kg, vemurafenib 20 mg/kg, after 3 weeks of treatment, n=7",1.77 ± 0.11 gram
same,TGI (%),A375RF21 xenograft; [10],72.72% and 72.72 ± 8.29%
same,Tumor weight (gram),A375RF21 xenograft; [10],0.51 ± 0.12 gram
"COc1cc(C(=O)c2c[nH]c(-c3ccc(Cl)cc3)n2)cc(OC)c1OC [12fa, (2-(4-chlorophenyl)-1H-imidazol-4-yl)(3,4,5-trimethoxyphenyl)methanone]",half-life at 0.5 μM,in vitro,44 min
same,solubility at […],"[2]; phosphate buffered saline, aqueous buffer, kinetic from dmso stock",12 µg/mL
"O=C(c1ccc(F)cc1)c1c[nH]c(-c2ccc(OCc3ccccc3)cc2)n1 [12jb, (2-(4-(benzyloxy)phenyl)-1H-imidazol-4-yl)(4-fluorophenyl)methanone]",increase in activity compared with the para-hydroxy compound 12kb,[6],440 fold
O=C(c1ccc(Br)cc1)c1nc(-c2ccc(Br)cc2)c[nH]1 [70t],IC50,PC-3,18900 nM
same,IC50,Du 145,25500 nM
same,IC50,LNCaP,16900 nM
same,IC50,PPC-1,13200 nM
COc1ccc(C(=O)c2nc(-c3cc(OC)c(OC)c(OC)c3)c[nH]2)cc1 [70y],IC50,PC-3,10400 nM
same,IC50,LNCaP,708 nM
same,IC50,PPC-1,5680 nM
"CN(C)/N=N/c1[nH]cnc1C(N)=O [DTIC, reference compound]",melanoma tumor growth inhibition (TGI value),[7],52%
same,melanoma tumor growth inhibition (TGI value),B16-F1 melanoma,51%
CC(=O)O[C@@]12CO[C@@H]1C[C@H](O)[C@@]1(C)C(=O)[C@H](O)C3=C(C)[C@@H](OC(=O)[C@H](O)[C@@H](NC(=O)OC(C)(C)C)c4ccccc4)C[C@@](O)([C@@H](OC(=O)c4ccccc4)[C@H]21)C3(C)C [Docetaxel],"counted cell apoptosis or death (percentage sum of Q1, Q2 and Q4)",A375RF21 [4],6.4±3.0%
same,CI ED75,A375RF21 [8],0.80
same,CI ED90,A375RF21 [8],0.90
same,"Brain (ng/mL), 4 hr",[9],20 ± 9 ng/mL
same,"Plasma (ng/mL), 1 hr",[9],768 ± 92 ng/mL
same,"Plasma (ng/mL), 4 hr",[9],345 ± 94 ng/mL
same,"Brain (ng/mL), 1 hr","[9]; mean ± SD, 3 nude mice",33 ± 14 ng/mL
same,Tumor size (mm^2) End,PC-3/TxR tumors; IV 10mpk,1774 ± 183 mm^2
same,Tumor size (mm^2) Start,PC-3/TxR tumors; IV 10mpk,143 ± 20 mm^2
same,Tumor size (mm^2) End,PC-3/TxR tumors; IV 20mpk,999 ± 905 mm^2
same,Tumor size (mm^2) Start,PC-3/TxR tumors; IV 20mpk,170 ± 80 mm^2
same,TGI (%),"PC-3/TxR tumors; mouse, in vivo, iv, 10 mg/kg",14%
